Data taken from PubChem BioAssay AID330 (DTP/NCI, 2004).
Several values for one entry are separate records, joined by “and”; a condition that tells them apart may be missing. Equal entries are not always repeated. Inconclusive results and toxic doses are left out. How the source made its calls: active means survival T/C of 150% or more; inactive means T/C below 125% in these data.

Test system: P388 leukemia ip, CD2F1 mice, survival T/C
Experiment: NCI In Vivo Anticancer Drug Screen. Data for tumor model P388 Leukemia (intraperitoneal) in CD2F1 (CDF1) mice
Settings: endpoint: median survival time, higher = longer survival
Method: The antitumor activity of compounds was measured in mice bearing transplantable tumors. Survival or tumor size were measured and the results are expressed as the measurement made in the treated group (T) divided by the measurement made in the vehicle treated control group (C). The tumor model used in this assay is P388 Leukemia (intraperitoneal) in CD2F1 (CDF1) mice

[1] = dose: 6.25 mg/kg/injection, schedule: Q01DX009 (ip), vehicle: saline with Tween-80
[2] = dose: 12.5 mg/kg/injection, schedule: Q01DX009 (ip), vehicle: saline with Tween-80
[3] = dose: 25.0 mg/kg/injection, schedule: Q01DX009 (ip), vehicle: saline with Tween-80
[4] = dose: 50.0 mg/kg/injection, schedule: Q01DX009 (ip), vehicle: saline with Tween-80
[5] = dose: 60.0 mg/kg/injection, schedule: Q01DX005 (ip), vehicle: Klucel (hydroxypropylcellulose) (HPC)
[6] = dose: 120.0 mg/kg/injection, schedule: Q01DX005 (ip), vehicle: Klucel (hydroxypropylcellulose) (HPC)
[7] = dose: 240.0 mg/kg/injection, schedule: Q01DX005 (ip), vehicle: Klucel (hydroxypropylcellulose) (HPC)
[8] = dose: 15.0 mg/kg/injection, schedule: Q01DX005 (ip), vehicle: saline with Tween-80
[9] = dose: 60.0 mg/kg/injection, schedule: Q01DX005 (ip), vehicle: saline with Tween-80
[10] = dose: 100.0 mg/kg/injection, schedule: Q01DX009 (ip), vehicle: Klucel (hydroxypropylcellulose) (HPC)
[11] = dose: 200.0 mg/kg/injection, schedule: Q01DX009 (ip), vehicle: Klucel (hydroxypropylcellulose) (HPC)
[12] = dose: 100.0 mg/kg/injection, schedule: Q01DX009 (ip), vehicle: saline with Tween-80
[13] = dose: 200.0 mg/kg/injection, schedule: Q01DX009 (ip), vehicle: saline with Tween-80
[14] = dose: 50.0 mg/kg/injection, schedule: Q01DX005 (ip), vehicle: Klucel (hydroxypropylcellulose) (HPC)
[15] = dose: 100.0 mg/kg/injection, schedule: Q01DX005 (ip), vehicle: Klucel (hydroxypropylcellulose) (HPC)
[16] = dose: 200.0 mg/kg/injection, schedule: Q01DX005 (ip), vehicle: Klucel (hydroxypropylcellulose) (HPC)
[17] = dose: 1.0 mg/kg/injection, schedule: Q01DX009 (ip), vehicle: saline
[18] = dose: 2.0 mg/kg/injection, schedule: Q01DX009 (ip), vehicle: saline
[19] = dose: 4.0 mg/kg/injection, schedule: Q01DX009 (ip), vehicle: saline

Measured: T/C

COc1cc(O)c(C(C)=O)c(O)c1
inactive: [1] 102 % of control | [2] 93 % of control | [3] 102 % of control | [4] 100 % of control

CN(C)c1ccc(/C=N\N=C/c2ccc(N(C)C)cc2)cc1
inactive: [5] 88 % of control | [6] 87 % of control | [7] 86 % of control

CCCCCCCCCCCCCCC(Br)C(=O)O (stereo not given)
inactive: dose: 50.0 mg/kg/injection, schedule: Q01DX009 (ip), vehicle: saline 101 % of control | dose: 100.0 mg/kg/injection, schedule: Q01DX009 (ip), vehicle: saline 103 % of control

C=C1CC2(CC(C(=C)C)CCC2C)OC1=O (stereo not given)
inactive: dose: 100.0 mg/kg/injection, schedule: Q01DX001 (ip), vehicle: saline 101 % of control | dose: 200.0 mg/kg/injection, schedule: Q01DX001 (ip), vehicle: saline 99 % of control | dose: 400.0 mg/kg/injection, schedule: Q01DX001 (ip), vehicle: saline 102 % of control

NC[CH2][Sn]([c]1ccccc1)([CH]1CCCCC1)[CH]1CCCCC1
inactive: dose: 3.75 mg/kg/injection, schedule: Q01DX005 (ip), vehicle: saline with Tween-80 100 % of control | dose: 7.5 mg/kg/injection, schedule: Q01DX005 (ip), vehicle: saline with Tween-80 93 % of control | [8] 99 % of control | [9] 92 % of control

C/C=C1/CN2CCC34c5ccccc5N(C)C23C(OC(C)=O)CC1C4(CO)C(=O)OC (stereo not given)
inactive: dose: 2.25 mg/kg/injection, schedule: Q01DX005 (ip), vehicle: saline + Tween-80 + alcohol 120 % of control | dose: 4.5 mg/kg/injection, schedule: Q01DX005 (ip), vehicle: saline + Tween-80 + alcohol 103 % of control | dose: 9.0 mg/kg/injection, schedule: Q01DX005 (ip), vehicle: saline + Tween-80 + alcohol 106 % of control | dose: 18.0 mg/kg/injection, schedule: Q01DX005 (ip), vehicle: saline + Tween-80 + alcohol 104 % of control

O=C(O)CC1Sc2nc3c(n2C1(O)c1ccccc1)CCCC3 (stereo not given)
inactive: dose: 50.0 mg/kg/injection, schedule: Q01DX009 (ip), vehicle: Klucel (hydroxypropylcellulose) (HPC) 109 % of control | [10] 100 % of control | [11] 98 % of control

CN(C)CCOc1ccccc1Cc1ccccc1
inactive: [4] 95 % of control | [12] 100 % of control | [13] 118 % of control

O=C(NC(=O)c1c(F)cccc1F)Nc1cccc(Oc2ncc(Cl)cn2)c1
inactive: [8] 111 % of control | dose: 30.0 mg/kg/injection, schedule: Q01DX005 (ip), vehicle: saline with Tween-80 96 % of control | [9] 94 % of control and 95 % of control

O=CC1C2C=CCC12 (stereo not given)
inactive: [12] 113 % of control | [13] 118 % of control | dose: 400.0 mg/kg/injection, schedule: Q01DX009 (ip), vehicle: saline with Tween-80 113 % of control

CCOC(=O)C[CH2][Sn]([Cl])([Cl])[Cl]
inactive: dose: 100.0 mg/kg/injection, schedule: Q04DX003 (ip), vehicle: saline 100 % of control | dose: 200.0 mg/kg/injection, schedule: Q04DX003 (ip), vehicle: saline 103 % of control

Cc1ccc(N(CC(=O)O)S(=O)(=O)c2ccccc2)c(C)c1Cc1cccc(Br)c1
inactive: dose: 50.0 mg/kg/injection, schedule: Q01DX005 (ip), vehicle: saline with Tween-80 101 % of control | dose: 100.0 mg/kg/injection, schedule: Q01DX005 (ip), vehicle: saline with Tween-80 104 % of control | dose: 200.0 mg/kg/injection, schedule: Q01DX005 (ip), vehicle: saline with Tween-80 101 % of control

CN(C)C1CS(=O)(=O)OC2=C1CCOc1ccccc12 (stereo not given)
inactive: [5] 97 % of control | [6] 91 % of control | [7] 89 % of control

CCCCCCCCCCCCCC(CCCC)CCCCCCCC (stereo not given)
inactive: dose: 37.5 mg/kg/injection, schedule: Q01DX001 (ip), vehicle: saline sonified 104 % of control | dose: 75.0 mg/kg/injection, schedule: Q01DX001 (ip), vehicle: saline sonified 100 % of control | dose: 150.0 mg/kg/injection, schedule: Q01DX001 (ip), vehicle: saline sonified 100 % of control

O=C(O)C12C3CCC(O3)C1(C(=O)O)C1CCC2O1 (stereo not given)
inactive: [9] 94 % of control | dose: 120.0 mg/kg/injection, schedule: Q01DX005 (ip), vehicle: saline with Tween-80 90 % of control | dose: 240.0 mg/kg/injection, schedule: Q01DX005 (ip), vehicle: saline with Tween-80 88 % of control

O=C(O)c1nn(-c2ccc(Cl)cc2)c2c1C(=O)c1ccccc1C2=O
inactive: dose: 12.5 mg/kg/injection, schedule: Q01DX005 (ip), vehicle: Klucel (hydroxypropylcellulose) (HPC) 98 % of control | dose: 25.0 mg/kg/injection, schedule: Q01DX005 (ip), vehicle: Klucel (hydroxypropylcellulose) (HPC) 91 % of control | [14] 98 % of control and 89 % of control | [15] 92 % of control | [16] 103 % of control

COc1ccc(CSc2ncnc3nc[nH]c23)cc1
inactive: [3] 91 % of control | [4] 87 % of control

CCCCCCCCCCCCCCCC(=O)N(CCCCN(C)C)CCCCN(C)C
inactive: [17] 86 % of control and 95 % of control | [18] 97 % of control | [19] 97 % of control | dose: 8.0 mg/kg/injection, schedule: Q01DX009 (ip), vehicle: saline 103 % of control

C(=Nc1ccc2c(c1)Cc1ccccc1-2)c1ccc2ccccc2c1
inactive: dose: 400.0 mg/kg/injection, schedule: Q04DX002 (ip), vehicle: saline 90 % of control

CCP(=O)(CC)CC
inactive: dose: 25.0 mg/kg/injection, schedule: Q01DX005 (ip), vehicle: saline 98 % of control | dose: 50.0 mg/kg/injection, schedule: Q01DX005 (ip), vehicle: saline 105 % of control | dose: 100.0 mg/kg/injection, schedule: Q01DX005 (ip), vehicle: saline 99 % of control | dose: 200.0 mg/kg/injection, schedule: Q01DX005 (ip), vehicle: saline 99 % of control | dose: 400.0 mg/kg/injection, schedule: Q01DX005 (ip), vehicle: saline 99 % of control

CC(C)(C)C1=CC(=O)C(C#N)=C(C#N)C1=O
inactive: [1] 95 % of control | [2] 109 % of control | [3] 100 % of control

Oc1ccc(C2C=CCC2)cc1C1C=CCC1 (stereo not given)
inactive: [10] 106 % of control | [11] 116 % of control | dose: 400.0 mg/kg/injection, schedule: Q01DX009 (ip), vehicle: Klucel (hydroxypropylcellulose) (HPC) 115 % of control

Cc1ccc(S(=O)(=O)/C(=C/c2c(-c3ccccc3)c(-c3ccccc3)c3n2CCC3)NC=O)cc1
inactive: dose: 100.0 mg/kg/injection, schedule: Q01DX001 (ip), vehicle: saline with Tween-80 96 % of control | dose: 200.0 mg/kg/injection, schedule: Q01DX001 (ip), vehicle: saline with Tween-80 88 % of control | dose: 400.0 mg/kg/injection, schedule: Q01DX001 (ip), vehicle: saline with Tween-80 86 % of control

CCOP(=S)(N/N=C(\C)c1ccc(C)s1)OCC
inactive: [14] 104 % of control | [15] 113 % of control | [16] 114 % of control

C=CC12COC(=O)C(=C)C1C(O)C1C(=C)C(=O)OC1C2 (stereo not given)
inactive: dose: 0.5 mg/kg/injection, schedule: Q01DX009 (ip), vehicle: saline 97 % of control | [17] 97 % of control | [18] 106 % of control | [19] 110 % of control

CC12CCC(O)CC1CCC1C2C(O)CC2(C)C1CCC2(C)O (stereo not given)
inactive: dose: 100.0 mg/kg/injection, schedule: Q04DX003 (ip), vehicle: alcohol 105 % of control | dose: 200.0 mg/kg/injection, schedule: Q04DX003 (ip), vehicle: alcohol 90 % of control | dose: 400.0 mg/kg/injection, schedule: Q04DX003 (ip), vehicle: alcohol 115 % of control

CN=C(N)NN=C(c1cccc(F)c1)c1cccc(F)c1
inactive: dose: 25.0 mg/kg/injection, schedule: Q04DX002 (ip), vehicle: saline with Tween-80 100 % of control | dose: 50.0 mg/kg/injection, schedule: Q04DX002 (ip), vehicle: saline with Tween-80 102 % of control | dose: 100.0 mg/kg/injection, schedule: Q04DX002 (ip), vehicle: saline with Tween-80 100 % of control
